From patent US20190192521A1, “Methods of Treating Arid1A-Mutated Cancers With HDAC6 Inhibitors and EZH2 Inhibitors” (The Wistar Institute of Anatomy and Biology, priority 2016, published 2019)

What was measured:
[1] = tested on: cells with BRG1 knockdown; assay: ACY1215 sensitivity after knockdown of SWI/SNF subunit BRG1; format: cell-based
Description: Retrovirus production and transduction were performed as described in Aird et al. Cell Reports 2013, 3, 1252-1265, and Bitler et al. Nat. Med. 2015, 21, 231-238. Phoenix cells were used to package the viruses. Lentivirus was packaged using the Virapower Kit from Life Technologies (Carlsbad, Calif.) following the manufacturer's instructions, and as described Aird et al. Cell Reports 2013, 3, 1252-1265, and Bitler et al. Nat. Med. 2015, 21, 231-238. pLKO.1-shARID1As (TRCN0000059090), pLKO.1-shp53 (TRCN0000010814 and TRCN0000003755), pLKO.1-shHDAC6 (TRCN0000004839 and TRCN0000004841), pLKO.1-shCaspase 3 (TRCN0000003550), shCaspase 9 (TRCN0000003583), shCaspase 8 (TRCN0000003577 and TRCN0000003579)and shBRG1 (TRCN0000015549 and TRCN0000015552) were obtained from Open Biosystems. A shRNA to luciferase was used as a control. […] Cells infected with viruses encoding the puromycin resistance gene were selected in 1 μg/ml puromycin.

[2] = tested on: cells derived from Apc−/−/Pten−/−/Arid1a−/− and Apc−/−/Pten−/− tumours; assay: ACY1215 sensitivity of cells derived from mouse endometrioid tumours; format: cell-based
[3] = tested on: p53K120Ac in ARID1A-mutated TOV21G cells; assay: mitochondrial localization of p53K120Ac (immunofluorescence, cellular fractionation); format: cell-based, human; settings: 1.25 μM
Excerpt: FIG. 42 illustrates that apoptosis induced by HDAC6 inhibition in ARD1A-mutated cells correlates with mitochondrial localization of p53K120Ac and a decrease in mitochondrial membrane potential. […] Images were captured using confocal microscopy.
Mean of three independent experiments with S.E.M.
Expression of p53K120Ac, mitochondrial marker TOM20, and total p53 in the indicated fractions was examined by immunoblot. GAPDH expression was used as a loading control.
Immunofluorescence and immunohistochemical staining was performed as follows. Immunofluorescence was performed after 48 hours as indicated by fixing samples in 4% paraformaldehyde and permeabilizing with 0.5% Triton-X. Samples were incubated with primary antibodies for 2 hours at room temperature, highly cross absorbed secondary antibodies (Invitrogen) for 1 hour at room temperature and mounted with prolong anti-fade reagent (Invitrogen). Immuno-stained cells were imaged using a Leica Confocal microscope. […] Bitler et al. Nat. Med. 2015, 21, 231-238; Bitler et al. Cancer Research 2011, 71, 6184-6194. Expression of the stained markers was scored using a histologic score (H score) as previously described. McCarty, Jr. et al. Cancer research 1986, 46, 4244s-4248s.
Mitochondria were isolated using the Mitochondria Isolation Kit (Thermo Fisher Scientific). […]

[4] = tested on: p53K120Ac in ARID1A wild-type RMG1 cells with or without ARID1A knockdown; assay: immunoblot of p53K120Ac, RMG1 with or without shARID1A; format: cell-based, human; settings: 1.25 μM
Description: Expression of the indicated proteins was examined by immunoblot. GAPDH expression was used as a loading control.
(§1) For immunoblotting, protein was isolated as described in Bitler et al. Nat. Med. 2015, 21, 231-238. Briefly, protein was extracted with RIPA buffer (150 mM NaCl, 1% NP40, 0.5% sodium deoxycholate, 0.1% SDS, 50 mM Tris pH 8.0, and 1 mM PMSF). Protein was separated on a SDS-PAGE and transferred to PVDF membrane. For immunoblot of p53 post-translation modifications, cells were treated with a proteasome inhibitor MG132 (10 μM) to stabilize p53 protein.

[5] = tested on: p53 target genes (BAX, PUMA, NOXA, CDKN1A) in ARID1A-mutated TOV21G cells; assay: RNA-seq of p53 target genes; format: cell-based, human; settings: 1.25 μM
Excerpt: RNA was extracted and utilized for next generation sequencing (RNA-seq). Expression of p53 target genes known to regulate apoptosis such as BAX, PUMA and NOXA, and known to regulate cell cycle arrest such as CDKN1A were not altered by HDAC6 inhibition in RNA-seq analysis.

[6] = tested on: ARID1A-mutated TOV21G cells; assay: ACY1215 sensitivity of TOV21G cells with or without wildtype ARID1A restoration; format: cell-based, human
Description: Colony formation assays were performed as follows. Cell lines were infected with lentivirus pLKO.1-shRNAs or pLKO.1-control with puromycin selection marker. Infected cells were selected with 1 μg/mL of puromycin for 72 hours and the selected cells were seeded in 12-well or 24-well plates. Cell medium was changed every three days with appropriate drug doses for 14 days or until control wells became confluent. Colonies were washed twice with PBS and fixed with 10% methanol and 10% acetic acid in distilled water. Fixed colonies were stained with 0.005% crystal violet. Integrated density was measured using NIH ImageJ software.

[7] = tested on: ARID1A-mutated TOV21G cells; assay: mitochondrial membrane potential (TMRE, FACS), TOV21G; format: cell-based, human
Description: Mean of five experimental replicates with S.E.M. p-value calculated via two-tailed t-test.
FIG. 96 illustrates ARID1A-mutated TOV21G cells with or without endogenous p53 knockdown by a shp53 that targets the 3′ UTR region of the human TP53 gene together with a lentivirus encoding a control, wildtype p53 or a p53K12OR mutant—the indicated cells were treated with or without ACY1215 and examined for mitochondrial membrane potential by FACS; n=3 independent experiments.
(§2) Annexin V and mitochondria membrane potentials were measured as follows. Phosphatidylserine externalization was detected using an Annexin V staining kit (Life Technologies) following the manufacturer's instructions. To measure change in mitochondria membrane potential cells were treated with 200 nM of tetramethylrhodamine, ethyl ester (TMRE; Abcam) for 15 min at 37° C. Annexin V and TMRE-positive cells were detected using the LSR18 and analyzed with the FlowJo software module.

[8] = tested on: ARID1A wild-type RMG1 cells with or without shARID1A; assay: mitochondrial membrane potential (TMRE, FACS), RMG1; format: cell-based, human; settings: 1.25 μM
Description: The mitochondria membrane potential was quantified by TMRE using FACS analysis. Data was collected via FACS and is representative of 3 independent experiments.
Error bars represent standard error mean. The p-value was calculated via two-tailed t-test.
as §2

[9] = tested on: ARID1A wild-type RMG1 cells; assay: apoptosis (Annexin V, cleaved caspase 3, cleaved PARP p85) in ARID1A wild-type cells; format: cell-based, human; settings: 1.25 μM
Description: Expression of apoptotic markers cleaved caspase 3 and cleaved PARP p85 by immunoblot. GAPDH expression was used as a loading control.
as §1, §2

O=C(CCCCCCNC(=O)c1cnc(N(c2ccccc2)c2ccccc2)nc1)NO [rocilinostat, 2-(diphenylamino)-N-(7-(hydroxyamino)-7-oxoheptyl)pyrimidine-5-carboxamide]
effect of BRG1 knockdown on sensitivity [1]: did not increase | sensitivity of Apc−/−/Pten−/−/Arid1a−/− tumour cells compared with Apc−/−/Pten−/− tumour cells [2]: more sensitive | p53K120Ac in the mitochondrial fraction ([3]; cellular fractionation): increase in p53K120Ac in the mitochondrial fraction | co-localization of p53K120Ac and mitochondrial marker TOM20 ([3]; immunofluorescence): significant increase in co-localization | p53K120Ac in ARID1A knockdown cells compared with controls [4]: significant increase in p53K120Ac | expression of p53 target genes (BAX, PUMA, NOXA, CDKN1A) [5]: not altered | effect of restoration of wildtype ARID1A on sensitivity [6]: reduced the sensitivity | mitochondrial membrane potential in ARID1A-mutated cells ([7]; 1.25 μM): significantly decreased | dependence of mitochondrial membrane potential decrease ([7]; p53 knockdown, wildtype p53 or p53K120R rescue): both p53 and p53K120Ac dependent | mitochondrial membrane potential, ARID1A knockdown compared with controls [8]: significantly decreased | apoptosis in ARID1A wild type cells [9]: did not induce a significant increase in apoptosis | markers of apoptosis in ARID1A wild-type cells with ARID1A knockdown ([9]; shARID1A): significantly increased markers of apoptosis
